Measurements from patent US9102670B2, “Pyrido-, pyrazo- and pyrimido-pyrimidine derivatives as mTOR inhibitors” (KuDOS Pharmaceuticals Limited, priority 2006, dated 2015).

Each compound was assayed on phosphorylation of Serine 473 in Akt (assay: In Vitro Phospho-Ser473 Akt Assay in MDA-MB-468 cells). Conditions: Homo sapiens, MDA-MB-468, read-out: IC50 values against mTOR, phospho-Ser473 Akt assay, MDA-MB-468 cells.
Assay type: cell-based

`C[C@H]1COCCN1c1nc(N2CCOC[C@@H]2C)c2ccc(-c3ccc(F)cc3)nc2n1` [Example 1aa] and `C[C@H]1COCCN1c1nc(N2CCOC[C@@H]2C)c2ccc(-c3ccc(Cl)cc3)nc2n1` [Example 1bp] cannot be ordered by IC50: < 100 nM for the first, < 300 nM for the second.

`C[C@H]1COCCN1c1nc(N2CCOC[C@@H]2C)c2ccc(-c3ccc(F)c(C(N)=O)c3)nc2n1` [Example 1ab] and `CNC(=O)c1cc(-c2ccc3c(N4CCOC[C@@H]4C)nc(N4CCOC[C@@H]4C)nc3n2)ccc1F` [Example 1ae] cannot be ordered by IC50: < 300 nM for the first, < 100 nM for the second.

`CCCNC(=O)c1cc(-c2ccc3c(N4CCOC[C@@H]4C)nc(N4CCOC[C@@H]4C)nc3n2)ccc1F` [Example 1ac] and `CCNC(=O)c1cc(-c2ccc3c(N4CCOC[C@@H]4C)nc(N4CCOC[C@@H]4C)nc3n2)ccc1F` [Example 1af] cannot be ordered by IC50: < 100 nM for the first, < 100 nM for the second.

`C[C@H]1COCCN1c1nc(N2CCOC[C@@H]2C)c2ccc(-c3ccc(F)c(C(=O)NCCO)c3)nc2n1` [Example 1ag] and `C[C@H]1COCCN1c1nc(N2CCOC[C@@H]2C)c2ccc(-c3ccc(F)c(CO)c3)nc2n1` [Example 1bc] cannot be ordered by IC50: < 100 nM for the first, < 100 nM for the second.

`CC(C)NC(=O)c1cccc(-c2ccc3c(N4CCOC[C@@H]4C)nc(N4CCOC[C@@H]4C)nc3n2)c1` [Example 1al] and `COC(=O)c1cccc(-c2ccc3c(N4CCOC[C@@H]4C)nc(N4CCOC[C@@H]4C)nc3n2)c1` [Example 1ba] cannot be ordered by IC50: < 100 nM for the first, < 100 nM for the second.

`C[C@H]1COCCN1c1nc(N2CCOC[C@@H]2C)c2ccc(-c3ccc(S(C)(=O)=O)cc3)nc2n1` [Example 1am] and `COc1ccc(-c2ccc3c(N4CCOC[C@@H]4C)nc(N4CCOC[C@@H]4C)nc3n2)cc1` [Example 1bo] cannot be ordered by IC50: < 300 nM for the first, < 300 nM for the second.

`C[C@H]1COCCN1c1nc(N2CCOC[C@@H]2C)c2ccc(-c3ccc(C(N)=O)cc3)nc2n1` [Example 1ao] and `C[C@H]1COCCN1c1nc(N2CCOC[C@@H]2C)c2ccc(-c3cccc(C(N)=O)c3)nc2n1` [Example 1as] cannot be ordered by IC50: < 300 nM for the first, < 100 nM for the second.

`C[C@H]1COCCN1c1nc(N2CCOC[C@@H]2C)c2ccc(-c3cccc(NS(C)(=O)=O)c3)nc2n1` [Example 1at] and `C[C@H]1COCCN1c1nc(N2CCOC[C@@H]2C)c2ccc(-c3cccc(S(N)(=O)=O)c3)nc2n1` [Example 1bd] cannot be ordered by IC50: < 100 nM for the first, < 300 nM for the second.

`C[C@H]1COCCN1c1nc(N2CCOC[C@@H]2C)c2ccc(-c3cc(F)nc(F)c3)nc2n1` [Example 1ay] and `Cc1cccc(-c2ccc3c(N4CCOC[C@@H]4C)nc(N4CCOC[C@@H]4C)nc3n2)c1` [Example 1br] cannot be ordered by IC50: < 300 nM for the first, < 100 nM for the second.

`COCc1cccc(-c2ccc3c(N4CCOC[C@@H]4C)nc(N4CCOC[C@@H]4C)nc3n2)c1` [Example 1bb] and `COCCNC(=O)c1cccc(-c2ccc3c(N4CCOC[C@@H]4C)nc(N4CCOC[C@@H]4C)nc3n2)c1` [Example 1be] cannot be ordered by IC50: < 100 nM for the first, < 100 nM for the second.

`COC(=O)c1cc(-c2ccc3c(N4CCOC[C@@H]4C)nc(N4CCOC[C@@H]4C)nc3n2)ccc1OC` [Example 1bg] and `C[C@H]1COCCN1c1nc(N2CCOC[C@@H]2C)c2ccc(-c3ccc(F)c(NS(C)(=O)=O)c3)nc2n1` [Example 1bk] cannot be ordered by IC50: < 100 nM for the first, < 300 nM for the second.

`C[C@H]1COCCN1c1nc(N2CCOC[C@@H]2C)c2ccc(-c3ccc(C#N)cc3)nc2n1` [Example 1bl] and `C[C@H]1COCCN1c1nc(N2CCOC[C@@H]2C)c2ccc(-c3ccc4[nH]ccc4c3)nc2n1` [Example 1bm] cannot be ordered by IC50: < 100 nM for the first, < 100 nM for the second.

Same assay, conditions: Homo sapiens, MDA-MB-468, read-out: IC50 values against mTOR, phospho-Ser473 Akt assay, MDA-MB-468 cells, upper bound

`C[C@H]1COCCN1c1nc(N2CCOC[C@@H]2C)c2ccc(-c3ccc(F)nc3)nc2n1` [Example 1ah] and `C[C@H]1COCCN1c1nc(N2CCOC[C@@H]2C)c2ccc(-c3ccnc(F)c3)nc2n1` [Example 1au] cannot be ordered by IC50: < 1000 nM for the first, < 1000 nM for the second.

`C[C@H]1COCCN1c1nc(N2CCOC[C@@H]2C)c2ccc(-c3ccncc3)nc2n1` [Example 1ar] and `C[C@H]1COCCN1c1nc(N2CCOC[C@@H]2C)c2ccc(-c3cccc(C#N)c3)nc2n1` [Example 1aw] cannot be ordered by IC50: < 1000 nM for the first, < 1000 nM for the second.

With `C[C@H]1COCCN1c1nc(N2CCOC[C@@H]2C)c2ccc(-c3cccc(C(=O)N4CCN(C)CC4)c3)nc2n1` [Example 1bf] the IC50 was < 1000 nM.
